Reference: US6127519A, “Calcitonin derivatives” (Tsumura & Co., priority 1990, dated 2000)

Test system: calcium concentration in the serum
Experiment: Test 1: reduction of calcium level in serum after tail vein administration to rats
Format: in vivo, rats of the Wistar strain
Details: 1 ml/kg tail vein, female Wistar rats
In short: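 Female Wistar rats, six weeks old, were assigned in groups of 4 and given the test peptides through the tail vein at 1 ml/kg. The peptides were dissolved in 1% aqueous sodium acetate (pH 4,0) containing 0.1% BSA. Blood (0.3 ml) was drawn from the neck vein immediately before dosing and at set times afterward. Serum was separated by centrifuging at 3500 rpm for 20 minutes. Calcium was measured on a TBA-380 analyzer with a Wako o-cpc kit, and the percentage reduction in serum calcium was calculated.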

“Peptide No. 22: novel calcitonin-derivative peptide, aminosuberic acid (carba) ring, Leu8, SEQ ID NO:22 (XGNLSTALLGKLSQELHKLQTYPQTAIGVGAP; aminosuberic acid carba ring)” was tested, and the “Serum calcium level as percent of pre-dose baseline” value (shortened to “Serum calcium level as percent”) (concentration 83 ng/ml, 0 hour (just before administration)) was 100.0%, the “Serum calcium level as percent” value (concentration 83 ng/ml, 1 hour) was 76.1% and the “Serum calcium level as percent” value (concentration 83 ng/ml, 2 hours) was 70.7%. For the same substance, the “Serum calcium level as percent” value (concentration 83 ng/ml, 4 hours) was 70.7%, the “Serum calcium level as percent” value (concentration 83 ng/ml, 6 hours) was 75.9% and the “Serum calcium level as percent” value (concentration 830 ng/ml, 0 hour (just before administration)) was 100.0%. The “Serum calcium level as percent” value (concentration 830 ng/ml, 1 hour) was 77.2%, the “Serum calcium level as percent” value (concentration 830 ng/ml, 2 hours) was 70.7% and the “Serum calcium level as percent” value (concentration 830 ng/ml, 4 hours) was 55.8%. The “Serum calcium level as percent” value (concentration 830 ng/ml, 6 hours) was 48.5%.
